According to patent publication US10010527B2, “Active metabolite of 1-[(2-bromophenyl)sulfonyl]-5-methoxy-3-[(4-methyl-1-piperazinyl)methyl]-1H-indole dimesylate monohydrate and dimesylate dihydrate salt of active metabolite” (SUVEN LIFE SCIENCES LIMITED, priority 2014, dated 2018):

Test system: rats
Assay: Radial arm maze (reversal of scopolamine induced amnesia)
Assay type: in vivo, rat
Conditions: p.o.
Description: Example 4: Radial Arm Maze
The cognition enhancing properties of formula (I) and formula (II) of this invention were estimated by using this model.
Radial arm maze consists of a central hub of 45 centimeter diameter. Each arm was of dimension 42.5×15×24 centimeter. The maze was elevated to a height of 1 meter above the ground. The animals were placed on a restricted diet until they reached approximately 85% of their free feeding weight. During this diet restriction period animals were habituated to the novel feed (pellets). Once the rats reached approximately 85% of their free feeding weight rats were habituated to the maze on the 1st and 2nd day. […] Animals were randomized on day 2. On the subsequent days the treatment was given as per the allotment. Each animal was introduced into the maze individually for a period of 10 minutes. The arms were baited only once and the animal had to learn the rule that repeated arm entries would not be rewarded. The trial ended once the rat had visited 16 arms or 10 minutes were over or all the pellets were eaten. The arm entries were recorded using the software.

Row | SMILES | Reversal of Scopolamine Induced amnesia - Effective dose range | Reversal of Scopolamine Induced amnesia - Effective dose range (dimesylate dihydrate)
1 | COc1ccc2c(c1)c(CN1CCNCC1)cn2S(=O)(=O)c1ccccc1Br [Example 1, 1-[(2-Bromophenyl)sulfonyl]-5-methoxy-3-[(1-piperazinyl)methyl]-1H-indole] | 10-20 mg/kg, p.o. | 
2 | COc1ccc2c(c1)c(CN1CCNCC1)cn2S(=O)(=O)c1ccccc1Br [Example 2, 1-[(2-Bromophenyl)sulfonyl]-5-methoxy-3-[(1-piperazinyl)methyl]-1H-indole dimesylate dihydrate] |  | 5-20 mg/kg, p.o.
